What was measured:
[1] = system: Dengue 2 replicon expressing BHK cells; experiment: Replicon inhibition assay (Renilla luciferase), Dengue 2 replicon expressing BHK cells; assay type: cell-based, Dengue virus (DENV2); conditions: for EC50: Dengue virus; for DENV2 BHK replicon inhibition (FIG. 2): 25 μM final concentration, 24 hours, BHK cells
Experimental: (§1) Baby Hamster Kidney (BHK) and African green monkey kidney epithelial cells (Vero) were cultured in Dulbecco's Modified Eagle Medium (DMEM) (Cellgro®; Mediatech, Inc., Manassas, Va.) supplemented with 10% fetal bovine serum, MEM nonessential amino acid (Cellgro®) (5 ml/liter), and Penicillin-Streptomycin (2.5 ml/liter). Dengue 2 replicon expressing BHK cells and WNV replicon expressing Vero cells were cultured in DMEM as described above containing additionally Geneticin or G418 (Fisher Scientific®, Pittsburgh, Pa.) to maintain the selective pressure of the replicon expressing cells.
(§2) Dengue 2 replicon expressing BHK cells and WNV replicon expressing Vero cells were plated 100 μl into a black 96 well plate (Greiner Bio-One; Monroe, N.C.) with 10^5 cells/ml concentrations. After 6 hours of incubation, 1 μl of each compound diluted in DMSO to 2.5 mM was added into each well to obtain a 25 μM as the final concentration. Cells were incubated at 37° C. in a humidified CO2 (5%) chamber for 24 hours. The media was then removed and the cells are washed with PBS before adding 20 μl of lysis buffer to each well. A Renilla luciferase assay was performed with the addition of 50 μl substrate (Promega Corporation; Madison, Wis.) with a 2 second delay and a 10 second measurement in a Centro LB 960 plate luminescence plate reader (Berthold Technologies; Oak Ridge, Tenn.). The data was analyzed and plotted with GraphPad Prism 5 (GraphPad Software, Inc.; La Jolla, Calif.).
Renilla luciferase activity was measured as described above 24 hours after the addition of the compounds.

[2] = system: WNV protease; experiment: High Throughput Screen (HTS) protease assay; assay type: biochemical, West Nile virus (EG101 strain); conditions: 100 nl of 5 mg/ml compound in DMSO per 30.1 μl well; substrate Boc-Gly-Lys-Arg-AMC 50 μM; DMSO controls = 100% activity
Experimental: Procedures for expression and purification of WNV (EG101 strain) were similar to those described elsewhere by Mueller et al., Int. J. Biochem. Cell. Biol., 39: 606-14 (2007). Briefly, E. coli Top10 F′ cells (Invitrogen, Carlsbad, Calif.) were transformed with the protease expression plasmid. Cells were grown at 37° C. until the OD600 was ˜0.5. Cells were then induced with isopropyl-1-thio-β-D-galactopyranoside (American Bioanalytical, Natick, Mass.) (0.5 mM), and incubated for 4 h at 37° C. Cells were harvested by centrifugation (5000×g) for 15 min at 4° C., washed once with a buffer containing 50 mM Tris-HCl, pH 7.5, and 200 mM NaCl, centrifuged at 5000×g for 15 min at 4° C., and stored at -80° C. until used.
Proteases were purified by suspending bacterial pellets in 50 mM Hepes, pH 7.0, 500 mM NaCl, (buffer A) with 0.05 mg/ml lysozyme. Cells were incubated for 30 min on ice after addition of 10% stock solution of Triton X-100 (final concentration of 0.5%). Cells were disrupted by sonication for 2 min and the soluble fraction was collected after centrifugation (15,000×g) for 30 min at 4° C. The soluble fraction was incubated for 1 h at 4° C. with Talon resin (BD Bioscience, San Jose, Calif.) which was pre-equilibrated in buffer A. The affinity resin was centrifuged at (400×g) for 10 min at 4° C., washed three times with buffer A, and packed into a column. Washing of the column was continued with the buffer A containing 10 mM imidazole, followed by elution of the protease with buffer A containing 150 mM imidazole. The protease was concentrated and further purified by Sephadex G-75 gel filtration chromatography. The purified protease fractions were pooled and dialyzed against a buffer containing 50 mM Tris-HCl pH 7.5 and 300 mM NaCl (4×1 L). Aliquots (100 μl) were frozen at −80° C.
The protease assay (100 μl) described by Mueller et al., Int. J. Biochem. Cell. Biol. 39: 606-14 (2007) was adapted for a 384-well plate format (30.1 μl). Microtiter plates were loaded sequentially with 14 μl of the reaction buffer containing 200 mM Tris-HCl, pH 9.5, and 30% glycerol (TG buffer) using an automated Wellmate (Matrix, Hudson, N.H.) and 6 μl of WNV protease (0.05 μM) (as prepared above) in TG buffer containing 15 mM NaCl (3 mM final concentration). Plates were then centrifuged at 1000×g for 3 min at room temperature to mix samples and pool liquids at the bottom of the wells. Inhibitor compounds (100 nl of 5 mg/ml in dimethyl sulfoxide; DMSO) were added to each well in duplicate by a pin-transfer mechanism of a robotic delivery system. The final inhibitor concentrations in the assays varied due to different molecular weights of the compounds from the libraries that were screened. Plates were incubated at room temperature to allow for formation of protease/inhibitor complexes. The fluorogenic substrate, t-butyl-oxycarbonyl(Boc)-Gly-Lys-Arg-7-amino-4-methyl coumarin (AMC) (10 μl in TG buffer; 50 μM final concentration in the reaction mixture), was added using the Wellmate, and the plates were centrifuged for 3 min at 1000×g and incubated at room temperature for 15 min. Fluorescence was measured at excitation and emission wavelengths of 385 nm and 465 nm, respectively, on a Perkin-Elmer (Waltham, Mass.) spectrofluorometer. To validate the assay conditions, aprotinin (bovine pancreatic trypsin inhibitor, BPTI) was used as a positive control. Assay mixtures containing DMSO were used as negative controls. The average of fluorescence values in duplicate wells for a given compound was used to determine the percent activity by taking the values obtained with DMSO controls as 100%. Compounds 1-11, 18-32, and 37-101 above were identified. […] Compounds 12-17 are compounds related to those identified in the HTS screen that also show significant WNV protease inhibition, i.e., >95%.

[3] = system: WNV replicon expressing Vero cells; experiment: Replicon inhibition assay (Renilla luciferase), WNV replicon expressing Vero cells; assay type: cell-based, West Nile virus (WNV); conditions: for WNV replicon inhibition (FIG. 1): 25 μM final concentration, 24 hours, Vero cells; for EC50: West Nile virus, Vero, 24 h
Experimental: as §1, §2
Specifically, the cells were prepared as above and the concentration of the compounds were varied (see Table 2). Renilla luciferase activity was measured as described above 24 hours after the addition of the compounds.

[4] = Cytotoxicity assay (MTT), naïve Vero cells; assay type: cell-based; conditions: African green monkey, 18 hours incubation
Experimental: as §1
(§3) Naïve Vero cells were cultured in the presence of varying concentrations of the Compound 33, Compound 34, and Compound 35 to calculate CC50 values. In the same way, Compound 33, Compound 34, Compound 35, and Compound 36 were tested in BHK cells. Naïve BHK and Vero cells were prepared in 96-well plates as described above at various final concentrations. After 18 hours of incubation, 10 μl of MTT reagent (Chemicon; Temecula, Calif.) is added into each well. The cells were incubated for 2 hours before adding 100 μl of detergent and were read in a spectrophotometer as described in the manufacturer's protocol.

[5] = Cytotoxicity assay (MTT), naïve BHK cells; assay type: cell-based; conditions: hamster, 18 hours incubation
Experimental: as §1, §3

Compound | % Inhibition (reduction in protease activity) [2] | other results
Oc1c(C(Nc2nc3ccccc3s2)c2ccccc2)ccc2cccnc12 (stereo not shown) [Compound 13] | >95% | EC50 ([1]; DENV2, BHK): ~7.5 µM
Oc1ccccc1C(Nc1nc2ccccc2s1)c1ccc2cccnc2c1O (stereo not shown) [Compound 16] | >95% | EC50 ([1]; DENV2, BHK): ~4.5 µM
Oc1c(C(Nc2nccs2)c2cccc(OCc3ccccc3)c2)ccc2cccnc12 (stereo not shown) [Compound 17] | >95% | EC50 ([1]; DENV2, BHK): ~8.3 µM
Oc1c(CN2CCOCC2)ccc2cccnc12 [Compound 33] | – | DENV2 BHK replicon inhibition (FIG. 2) [1]: inhibitory; EC50 ([1]; BHK, 24 h): 10.6 µM; WNV replicon inhibition (FIG. 1) [3]: inhibitory; EC50 [3]: 7.96 µM
Oc1c(CN2CCOCC2)cc(Cl)c2cccnc12 [Compound 34] | – | DENV2 BHK replicon inhibition (FIG. 2) [1]: inhibitory; EC50 ([1]; BHK, 24 h): 35 µM; WNV replicon inhibition (FIG. 1) [3]: inhibitory; EC50 [3]: 14.3 µM; CC50 at 18 h [4]: 355 µM; CC50 at 18 h [5]: 170 µM
CCN(CC)Cc1cc(Cl)c2cccnc2c1O [Compound 35] | – | DENV2 BHK replicon inhibition (FIG. 2) [1]: inhibitory; EC50 ([1]; BHK, 24 h): 2.35 µM; WNV replicon inhibition (FIG. 1) [3]: inhibitory; EC50 [3]: 3.38 µM; CC50 at 18 h [4]: 60.9 µM; CC50 at 18 h [5]: 70.1 µM
Oc1c(CN2CCOCC2)cc(Cl)c2c1NCCC2 [Compound 36] | – | DENV2 BHK replicon inhibition (FIG. 2) [1]: inhibitory; EC50 ([1]; BHK, 24 h): 63.1 µM; CC50 at 18 h [5]: 220 µM
Cc1ccc(NC(=O)C23C(=O)Oc4ccccc4C2C3(C)C(=O)c2ccccc2)cc1 (stereo not shown) [Compound 68] | 61% | –
O=C(CCc1ccccc1)Nc1nnc(SCc2ccc(F)cc2)s1 [Compound 69] | 61% | –
COc1ccc(Cl)cc1NC(=O)c1cc(-c2ccco2)on1 [Compound 70] | 60% | –
O=C(CCC(=O)c1ccc(Cl)cc1)Nc1c(F)cccc1F [Compound 71] | 59% | –
Nc1sc2c(c1C(=O)NCCc1ccccc1)CCC2 [Compound 72] | 59% | –
Cc1ccc(NC(=O)c2cnn(-c3ccccc3)c2NC(=O)c2ccco2)cc1 [Compound 73] | 58% | –
O=C(/C=C/c1ccccc1)Nc1c2c(nn1-c1ccccc1)CSC2 [Compound 74] | 57% | –
O=C(c1cc(Br)cc2c1OCC2)N1CCOCC1 [Compound 75] | 57% | –
CCC(C(=O)Nc1c2c(nn1-c1ccc(F)cc1)CSC2)c1ccccc1 (stereo not shown) [Compound 76] | 57% | –
Cc1ccc(CNC(=O)Cc2ccc(-n3cccc3)cc2)cc1 [Compound 77] | 56% | –
COc1ccc(NC(=O)C(NC(=O)Cc2cccs2)c2ccccc2)cc1 (stereo not shown) [Compound 78] | 56% | –
CC1=Nc2ccccc2N=C(NC(=O)CSc2nnnn2-c2ccccc2)C1c1ccccc1 (stereo not shown) [Compound 79] | 56% | –

Compound | % Inhibition (reduction in protease activity) [2] | other results
Cc1ccc(/N=C2\NC(=O)C(CC(=O)Nc3ccc(OC(F)(F)F)cc3)S2)cc1 (stereo not shown) [Compound 81] | 55% | –
O=C(Nc1ccc(Cl)cc1)Oc1ccccc1N1CCSCC1 [Compound 82] | 55% | –
CCOC(=O)c1c(CC(C)C)csc1NC(=O)Cc1ccccc1 [Compound 83] | 54% | –
Cc1nnc(NC(=O)CSc2cn(Cc3ccccc3)c3ccccc23)s1 [Compound 84] | 54% | –
Cc1ccc(NC(=O)c2cc(-c3ccc(O)cc3)on2)cc1 [Compound 85] | 54% | –
CCn1c2ccccc2c2nnc(SCC(=O)Nc3ccc(S(N)(=O)=O)cc3)nc21 [Compound 86] | 54% | –
CCc1ccc(-c2cc(C(=O)Nc3ccc(S(=O)(=O)NC(C)=O)cc3)c3ccccc3n2)cc1 [Compound 87] | 54% | –
Cc1cc(NC(=O)CSc2ccccn2)no1 [Compound 88] | 54% | –
O=C(NCc1csc2ccccc12)c1cc(F)cc2c1OCOC2 [Compound 89] | 53% | –
CC(C)c1ccc(NC(=O)CSC(=O)c2ccccc2)cc1 [Compound 92] | 52% | –
COc1cccc(CNC(=O)c2[nH]c(C)c(C(=O)NC3CCCCC3)c2C)c1 [Compound 93] | 52% | –
O=C(CSc1oc(-c2cccs2)nc1S(=O)(=O)c1ccccc1)NC1CCCCC1 [Compound 95] | 52% | –
CCCCC1CCC(C(=O)Nc2c3c(nn2-c2ccccc2C)C[S+]([O-])C3)CC1 (stereo not shown) [Compound 96] | 51% | –
N#CCC(=O)Nc1ccc(Oc2ccccc2)cc1 [Compound 97] | 51% | –
Cc1ccc(-c2noc(CCC(=O)NCC3CCN(Cc4cccc(C)c4)CC3)n2)cc1 [Compound 98] | 51% | –
O=C(Nc1nc(SCc2ccc(F)cc2)ns1)c1cccs1 [Compound 99] | 50% | –
CCc1ccccc1NC(=O)Cn1cccc1C1=NC(c2ccccc2)CO1 (stereo not shown) [Compound 100] | 50% | –
Cc1ccc(-n2nc3c(c2NC(=O)CCC2CCCC2)CSC3)cc1 [Compound 101] | 50% | –
